By melting point is commonly meant the temperature of the solid-liquid transition.

Data set [1] has as its target T1, proton potassium-adenosine triphosphatase (H+.K+-ATPase) (Sus scrofa, UniProt P19156).
T1 construct: A microsomal fraction prepared in accordance with the method of Sachs, et al; from tissue; host or cells: swine gastric mucosa, microsomal fraction (density gradient ultracentrifugation)
The data set is described as follows: Test on activity of proton potassium-adenosine triphosphatase (H+.K+-ATPase). The settings on record: swine gastric mucosal microsomal fraction, pH 6.85, 37° C.; read-out: 50% inhibitory concentration (IC50) against proton potassium-adenosine triphosphatase (converted). It counts as biochemical. The protocol:
Test on Activity of Proton•potassium-adenosine Triphosphatase (H^+.K^+-ATPase) A microsomal fraction prepared in accordance with the method of Sachs, et al. [J. Bio. Chem., 251, 7690(1976)] by homogenizing a fresh gastric mucosal layer of swine and then subjecting the homogenate to density gradient ultra centrifugation was employed as a proton potassium-adenosine triphosphatase preparation. A solution (10 μl) of a test compound dissolved in dimethyl sulfoxide was added to 0.75 ml of a 70 mM tris hydrochloric acid buffer (5 mM magnesium chloride, 20 mM potassium chloride, pH=6.85) containing 30 to 80 μg/ml, in terms of the protein concentration, of the enzyme preparation. The mixture was incubated with 200 times/min of agitation at 37° C. for 45 minutes. The enzymatic reaction was started by adding 0.25 ml of an 8 mM solution of disodium adenosine triphosphate. After this enzymatic reaction was continued for 20 minutes, 1 ml of a 10% trichloroacetic acid—activated charcoal (100 mg) solution was added to terminate the reaction. […] The amount of inorganic phosphoric acid in a reaction mixture free from potassium chloride was also measured. By subtracting this amount from the amount of inorganic phosphoric acid in the presence of potassium chloride, protonpotassium-adenosine triphosphatase activity (H^+.K^+-ATPase) was determined. […]

A further data set concerns gastric acid secretion. The data set can be described thus: Test for inhibition on gastric acid secretion in rats (pylorus ligation). The format is in vivo. The settings on record: pylorus-ligated rats, orally administered, four hours after ligation. The protocol: Test for Inhibition on Gastric Acid Secretion in Rats
After a group of rats was fasted overnight, they were subjected to midline abdominal incision and their pylorus was ligated under anesthesia with ether. The stomach and duodenum were returned to their original positions in the body, followed by closing at the abdominal incision part. A test compound (0.3 to 10 mg/ml) was suspended in an aqueous solution containing 0.5% of sodium carboxymethylcellulose and 0.4% of Tween 80 (trade mark). The resulting suspension (1 ml/kg of body weight) was orally administered to the rats through a stomach tube. Four hours after the ligation, the rats were sacrificed by inhalation of CO2 gas. They were subjected to abdominal incision to remove their stomach. The content of the stomach was collected in a glass-made graduated centrifuge tube. After centrifugation, the amount (ml) of the supernatant and the amount (ml) of the precipitate were measured. The precipitate of the amount exceeding 0.5 ml was regarded as feces and excluded from the data. The supernatant ([…]) was poured into a test tube. Distilled water (4 ml) was added to the solution, and the solution was titrated to pH 7.0 with 0.01 N sodium hydroxide. […] Each parameter was calculated in accordance with the following equations: […]

Data set [2] relates to Helicobacter pylori strains 9470, 9472 and 9474. The data set can be described thus: Antibacterial action against Helicobacter pylori (MIC, agar dilution). It counts as cell-based. The settings on record: 72 h, 37° C., 3 days, microaerophilic conditions, read-out: MIC (Minimum Inhibitory Concentration). The protocol:
Antibacterial Action Against Helicobacter Pylori The antibacterial activity of the compound of the invention was evaluated by using Helicobacter pylori strains 9470, 9472 and 9474 and determining MIC (Minimum Inhibitory Concentration) of the compound of the invention against Helicobacter pylori. Helicobacter pylori was cultured by plating for 4 days. A medium was prepared by dissolving Brain Heart Infusion Agar (product of Difco Laboratories) in a prescribed amount of distilled water, sterilizing in an autoclave, adding equine blood (product of Nippon Seibutsu Zairyo) to give a concentration thereof of 7% and then solidifying the mixture. Under microaerophilic conditions, Helicobacter pylori which had been cultured at 37° C. for 4 days was suspended in physiological saline to give its viable count of about 10^8 CFU/ml. The suspension was then diluted to 100 times and a portion (about 10 μl) of the diluted suspension was inoculated in a medium for measuring MIC. The medium employed for measuring MIC has the same composition as the preculture medium. A compound of this invention was dissolved in dimethyl sulfoxide (DMSO) and two-fold serial dilutions were made with sterilized water. After mixing the solution and the medium in a ratio of 1:99, a solidified product in the Petri dish was employed as an MIC measuring medium. […]
A general note: Agar dilution tests growth on a series of plates holding different concentrations.

Molecules are shown by their SMILES. Bounds are passed on as bounds.

T1 sequence (P19156 2-1034 limits assumed): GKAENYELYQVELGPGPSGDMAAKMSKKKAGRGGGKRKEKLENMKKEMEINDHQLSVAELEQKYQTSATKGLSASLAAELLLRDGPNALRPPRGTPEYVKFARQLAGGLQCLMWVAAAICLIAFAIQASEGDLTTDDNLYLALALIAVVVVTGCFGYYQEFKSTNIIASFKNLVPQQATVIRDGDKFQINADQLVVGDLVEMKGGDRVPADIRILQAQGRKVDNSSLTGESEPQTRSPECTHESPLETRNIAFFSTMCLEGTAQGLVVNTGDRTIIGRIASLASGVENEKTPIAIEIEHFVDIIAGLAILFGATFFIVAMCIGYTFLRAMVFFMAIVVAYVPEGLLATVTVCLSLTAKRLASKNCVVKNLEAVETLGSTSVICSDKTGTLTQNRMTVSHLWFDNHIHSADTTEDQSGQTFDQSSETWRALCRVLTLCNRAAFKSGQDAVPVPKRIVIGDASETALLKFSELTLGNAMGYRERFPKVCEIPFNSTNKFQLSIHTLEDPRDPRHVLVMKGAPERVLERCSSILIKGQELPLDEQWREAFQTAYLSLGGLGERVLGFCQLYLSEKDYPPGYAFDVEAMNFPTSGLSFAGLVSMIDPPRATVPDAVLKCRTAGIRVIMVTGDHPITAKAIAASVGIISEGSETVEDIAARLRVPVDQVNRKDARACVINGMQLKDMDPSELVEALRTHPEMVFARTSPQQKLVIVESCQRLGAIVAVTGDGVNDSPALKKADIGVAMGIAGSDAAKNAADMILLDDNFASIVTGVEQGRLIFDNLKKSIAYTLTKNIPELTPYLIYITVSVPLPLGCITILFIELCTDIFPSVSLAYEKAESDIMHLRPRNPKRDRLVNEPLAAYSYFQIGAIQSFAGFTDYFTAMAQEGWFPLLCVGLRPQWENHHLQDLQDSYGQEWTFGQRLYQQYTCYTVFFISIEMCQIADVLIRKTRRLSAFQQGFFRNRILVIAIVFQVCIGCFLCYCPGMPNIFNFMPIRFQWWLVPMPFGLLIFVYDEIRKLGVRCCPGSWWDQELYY
T1 sequence (P18434 whole entry partner): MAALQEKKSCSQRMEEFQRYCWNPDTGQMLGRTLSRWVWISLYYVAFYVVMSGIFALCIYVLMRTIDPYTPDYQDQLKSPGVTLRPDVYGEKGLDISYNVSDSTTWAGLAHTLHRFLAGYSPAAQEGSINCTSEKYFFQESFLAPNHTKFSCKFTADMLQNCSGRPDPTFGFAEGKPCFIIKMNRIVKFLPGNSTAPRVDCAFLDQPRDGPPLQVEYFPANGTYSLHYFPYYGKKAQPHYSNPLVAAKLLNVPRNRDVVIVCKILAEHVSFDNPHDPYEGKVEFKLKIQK

For `Cc1c(C=O)c2cnnc(OCc3ccc(F)cc3)c2n1C[C@H]1C[C@@H]1C`, the melting point was in the range of 138.5 to 139.5 °C.
`CC(=O)OCc1c(C)n(C[C@H]2C[C@@H]2C)c2c(OCc3ccc(F)cc3)nncc12` [Example 1, 3-Acetoxymethyl-7-(4-fluorobenzyloxy)-2-methyl-1-[(1S,2S)-2-methylcyclopropylmethyl]pyrrolo[2,3-d]-pyridazine] gave a melting point of 122 to 123 °C.
With `Cc1c(CO)c2cnnc(OCc3ccc(F)cc3)c2n1C[C@H]1C[C@@H]1C` [Example 2, 7-(4-Fluorobenzyloxy)-3-hydroxymethyl-2-methyl-1-[(1S,2S)-2-methylcyclopropylmethyl]pyrrolo[2,3-d]-pyridazine], the melting point lay in the range of 128 to 129 °C. Further, the IC50 in data set [1] is 42.2 nM. Moreover, in the data set on gastric acid secretion, the “50% inhibitory dose (ID50), gastric acid output” value is on record as “less than 10 mg/kg”. The MIC in data set [2] was less than 12.5 µg/mL.

The values above are taken from US6734181B2, “Pyrrolopyridazine compounds” (Sankyo Company, Limited, priority 2000, dated 2004).
